From US9850216B2 (H. LEE MOFFITT CANCER CENTER AND RESEARCH INSTITUTE, INC., priority 2013, dated 2017) come the findings set out here.

Structures are written as SMILES. Values joined by “and” are separate entries in the source; they are usually repeats but may differ in a detail not shown here. Equal entries are not always repeated. Where two headings read alike, the source gives them in different places.

The experiment has as its target ACK1 (Homo sapiens, UniProt Q07912). Nature of the experiment: ACK1 ELISA: phosphorylation of AKT-derived peptide. It counts as biochemical.
Setting [1] is: 10 μM, Table 1, replicate values listed.
Setting [2] is: 10 μM, Table 2, library 9, read-out: % Inhibition @ 10 μM (ELISA).
The mark [3] stands for this setting: 10 μM, read-out: ACK1 inhibition at 10 μM (ELISA).
Setting [4] is: 10 μM, Table 1, replicate values listed, read-out: % Inhibition at 10 μM (ELISA).
The mark [5] stands for this setting: 10 μM, Table 1, replicate values listed, hydrochloride.

Chain of ACK1 (Q07912 whole entry): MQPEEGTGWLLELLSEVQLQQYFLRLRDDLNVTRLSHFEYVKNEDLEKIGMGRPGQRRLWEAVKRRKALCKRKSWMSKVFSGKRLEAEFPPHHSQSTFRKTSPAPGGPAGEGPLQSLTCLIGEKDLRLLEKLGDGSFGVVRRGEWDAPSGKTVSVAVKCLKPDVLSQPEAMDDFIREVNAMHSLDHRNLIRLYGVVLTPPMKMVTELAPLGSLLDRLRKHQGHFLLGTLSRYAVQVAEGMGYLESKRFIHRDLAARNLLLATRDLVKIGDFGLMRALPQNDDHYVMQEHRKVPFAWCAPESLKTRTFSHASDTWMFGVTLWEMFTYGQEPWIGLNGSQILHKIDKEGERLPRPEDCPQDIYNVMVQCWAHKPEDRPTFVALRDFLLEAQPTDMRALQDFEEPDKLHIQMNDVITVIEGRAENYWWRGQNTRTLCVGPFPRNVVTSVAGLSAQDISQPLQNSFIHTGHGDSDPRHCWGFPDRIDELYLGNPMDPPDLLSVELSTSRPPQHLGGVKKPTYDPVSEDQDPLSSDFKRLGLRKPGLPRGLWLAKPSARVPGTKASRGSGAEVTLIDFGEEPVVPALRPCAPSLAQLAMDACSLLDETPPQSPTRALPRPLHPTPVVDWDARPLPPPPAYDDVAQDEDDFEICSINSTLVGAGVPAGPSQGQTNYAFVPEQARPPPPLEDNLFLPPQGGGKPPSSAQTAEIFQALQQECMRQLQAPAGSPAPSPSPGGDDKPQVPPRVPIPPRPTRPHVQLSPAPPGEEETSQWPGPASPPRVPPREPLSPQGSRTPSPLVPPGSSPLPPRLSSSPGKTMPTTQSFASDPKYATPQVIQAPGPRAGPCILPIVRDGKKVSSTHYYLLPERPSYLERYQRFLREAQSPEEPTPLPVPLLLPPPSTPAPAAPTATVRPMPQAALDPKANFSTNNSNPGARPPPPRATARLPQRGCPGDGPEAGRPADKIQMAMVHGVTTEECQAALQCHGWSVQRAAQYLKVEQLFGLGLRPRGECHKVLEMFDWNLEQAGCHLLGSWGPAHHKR

As to `O=C(O)C1CCN(c2ccc(Nc3ncc(Br)c(NCC4CCCO4)n3)cc2)CC1` (stereo not shown), the “% Inhibition at 10 μM (ELISA)” value under setting [1] is 84%. Besides, where the note is “read-out: % Inhibition at 10 μM (ELISA), 10 μM, Table 1, replicate values listed”, the inhibition at 10 µM turned out to be 85%.

On to `Brc1cnc(Nc2ccc(N3CCOCC3)cc2)nc1NCC1CCCO1` (stereo not shown) [Compound 9h], for which the inhibition at 10 µM under setting [2] was 89 ± 1.4%. Consider `Clc1cnc(Nc2ccc(N3CCNCC3)cc2)nc1NCC1CCCO1` (stereo not shown) [Compound 14], for which the inhibition at 10 µM under setting [2] was found to be 66 ± 1.5% and the inhibition at 10 µM under setting [3] was found to be 66%. Consider `Brc1cnc(Nc2ccc(N3CCNCC3)cc2)nc1NCC1CCCO1` (stereo not shown) [Compound 15], for which, under setting [2], the inhibition at 10 µM was determined as 65%. In the case of `CN1CCN(c2ccc(Nc3ncc(Br)c(NCC4CCCO4)n3)cc2)CC1` (stereo not shown) [Compound 18], the inhibition at 10 µM under setting [2] turned out to be 67 ± 0.2% and the inhibition at 10 µM under setting [3] was 67%. On to `CCOC(=O)C1CCN(c2ccc(Nc3ncc(Cl)c(NC[C@H]4CCCO4)n3)cc2)CC1.Cl` [DZ1-070, (R)-ethyl1-(4-(5-chloro-4-((tetrahydrofuran-2-yl)methylamino)pyrimidin-2-ylamino)phenyl)piperidine-4-carboxylate], for which the “% Inhibition at 10 μM (ELISA)” value under setting [1] came to 65%. Besides, under setting [4], the inhibition at 10 µM amounted to 52%. As to `CCOC(=O)C1CCN(c2ccc(Nc3ncc(Cl)c(NC[C@@H]4CCCO4)n3)cc2)CC1.Cl` [DZ1-079, (S)-ethyl1-(4-(5-chloro-4-((tetrahydrofuran-2-yl)methylamino)pyrimidin-2-ylamino)phenyl)piperidine-4-carboxylate], the “% Inhibition at 10 μM (ELISA)” value under setting [1] amounted to 69%. For the same molecule, the inhibition at 10 µM under setting [4] stood at 54%. Consider `Brc1cnc(Nc2ccc(C3CCNCC3)cc2)nc1NCC1CCCO1.Cl` (stereo not shown) [DZ1-088, 5-bromo-N2-(4-(piperidin-4-yl)phenyl)-N4-((tetrahydrofuran-2-yl)methyl)pyrimidine-2,4-diamine], for which, under setting [1], the “% Inhibition at 10 μM (ELISA)” value is on record as 85%. For the same molecule, the inhibition at 10 µM under setting [4] is 84%. Consider `Cl.O=C(Nc1c(F)cccc1Cl)c1cnc(Nc2ccc(N3CCOCC3)cc2)nc1NCC1CCCO1` (stereo not shown) [DZ1-092, N-(2-chloro-6-fluorophenyl)-2-(4-morpholinophenylamino)-4-((tetrahydrofuran-2-yl)methylamino)pyrimidine-5-carboxamide], for which the “% Inhibition at 10 μM (ELISA)” value under setting [1] turned out to be 88%. Also, under setting [4], the inhibition at 10 µM worked out at 77%. Turning to `CCOC(=O)C1CCN(c2ccc(Nc3ncc(Br)c(NCC4CCCO4)n3)cc2)CC1.Cl` (stereo not shown) [DZ1-093, Ethyl 1-(4-(5-bromo-4-((tetrahydrofuran-2-yl)methylamino)pyrimidin-2-ylamino)phenyl)piperidine-4-carboxylate], the “% Inhibition at 10 μM (ELISA)” value under setting [1] was found to be 65%. Under setting [4], the inhibition at 10 µM came out at 64%.

Take `CCOC(=O)C1CCN(c2ccc(Nc3ncc(C(=O)Nc4c(F)cccc4Cl)c(NCC4CCCO4)n3)cc2)CC1.Cl` (stereo not shown) [DZ1-094, Ethyl 1-(4-(5-(2-chloro-6-fluorophenylcarbamoyl)-4-((tetrahydrofuran-2-yl)methylamino)pyrimidin-2-ylamino)phenyl)piperidine-4-carboxylate]: the “% Inhibition at 10 μM (ELISA)” value under setting [1] is given as 73%. In addition, under setting [4], the inhibition at 10 µM was determined as 61%. In the same order, the values of `CN1CCN(c2ccc(Nc3nccc(NCC4CCCO4)n3)cc2)CC1` (stereo not shown) [DZ1-104] are 13% and 19%. Take `Oc1ccc(Nc2ncc(F)c(NCC3CCCO3)n2)cc1` (stereo not shown) [DZ1-112, 4-(5-fluoro-4-((tetrahydrofuran-2-yl)methylamino)pyrimidin-2-ylamino)phenol]: under setting [1], the “% Inhibition at 10 μM (ELISA)” value was determined as 33%. The inhibition at 10 µM under setting [4] is 53%.

As for `Clc1cnc(Nc2ccc(N3CCNCC3)cc2)nc1NCC1CCCO1` (stereo not shown) [MH1-007-3, 5-chloro-N2-(4-(piperazin-1-yl)phenyl)-N4-((tetrahydrofuran-2-yl)methyl)pyrimidine-2,4-diamine], under setting [1], the “% Inhibition at 10 μM (ELISA)” value was 73% and 78% (2×). Under setting [4], the inhibition at 10 µM was found to be 91%.

For `COc1cc(N2CCOCC2)ccc1Nc1ncc(Cl)c(NCC2CCCO2)n1` (stereo not shown) [MH1-030-4, 5-chloro-N2-(2-methoxy-4-morpholinophenyl)-N4-((tetrahydrofuran-2-yl)methyl)pyrimidine-2,4-diamine], the “% Inhibition at 10 μM (ELISA)” value under setting [1] worked out at 82%. In addition, the inhibition at 10 µM under setting [4] worked out at 88%. For the molecule `Clc1cnc(Nc2ccc(CN3CCCCC3)cc2)nc1NCC1CCCO1` (stereo not shown) [MH1-035-3, 5-chloro-N2-(4-(piperidin-1-ylmethyl)phenyl)-N4-((tetrahydrofuran-2-yl)methyl)pyrimidine-2,4-diamine], the “% Inhibition at 10 μM (ELISA)” value under setting [1] is reported as 72%. Moreover, under setting [4], the inhibition at 10 µM stood at 77%.

Consider `Cl.Clc1cnc(Nc2ccc(C3CCNCC3)cc2)nc1NCC1CCCO1` (stereo not shown) [NT1-005, 5-Chloro-N^2-(4-(piperidin-4-yl)phenyl)-N^4-((tetrahydrofuran-2-yl)methyl)pyrimidine-2,4-diamine], for which the “% Inhibition at 10 μM (ELISA)” value under setting [1] is given as 80%. Further, the inhibition at 10 µM under setting [4] was determined as 79%. The corresponding values for `Cl.O=C(O)Cc1ccc(Nc2ncc(Cl)c(NCC3CCCO3)n2)cc1` (stereo not shown) [NT1-006, 2-(4-(5-Chloro-4-((tetrahydrofuran-2-yl)methylamino)pyrimidin-2-ylamino)phenyl)acetic acid] are 81% and 72%. In the same order, the values of `Cl.O=C(O)CCc1ccc(Nc2ncc(Cl)c(NCC3CCCO3)n2)cc1` (stereo not shown) [NT1-007, 3-(4-(5-Chloro-4-((tetrahydrofuran-2-yl)methylamino)pyrimidin-2-ylamino)phenyl)propanoic acid] are 73% and 75%. Regarding `Cl.Clc1cnc(Nc2ccc(C3CCNCC3)cc2)nc1NC[C@H]1CCCO1` [NT1-010, (R)-5-Chloro-N^2-(4-(piperidin-4-yl)phenyl)-N^4-((tetrahydrofuran-2-yl)methyl)pyrimidine-2,4-diamine], the “% Inhibition at 10 μM (ELISA)” value under setting [1] is on record as 76%. Moreover, the inhibition at 10 µM under setting [4] is 67%. The corresponding values for `Cl.Clc1cnc(Nc2ccc(C3CCNCC3)cc2)nc1NC[C@@H]1CCCO1` [NT1-011, (S)-5-Chloro-N^2-(4-(piperidin-4-yl)phenyl)-N^4-((tetrahydrofuran-2-yl)methyl)pyrimidine-2,4-diamine] are 76% and 77%. For `Cl.O=C(O)Cc1ccc(Nc2ncc(Cl)c(NC[C@H]3CCCO3)n2)cc1` [NT1-012, (R)-2-(4-(5-Chloro-4-((tetrahydrofuran-2-yl)methylamino)pyrimidin-2-ylamino)phenyl)acetic acid], the “% Inhibition at 10 μM (ELISA)” value under setting [1] is given as 74%. Also, the inhibition at 10 µM under setting [4] is 68%. `Cl.O=C(O)Cc1ccc(Nc2ncc(Cl)c(NC[C@@H]3CCCO3)n2)cc1` [NT1-013, (S)-2-(4-(5-Chloro-4-((tetrahydrofuran-2-yl)methylamino)pyrimidin-2-ylamino)phenyl)acetic acid]: the “% Inhibition at 10 μM (ELISA)” value under setting [1] was 73% and 46%.

For `Cl.O=C(O)CCc1ccc(Nc2ncc(Cl)c(NC[C@H]3CCCO3)n2)cc1` [NT1-014, (R)-3-(4-(5-Chloro-4-((tetrahydrofuran-2-yl)methylamino)pyrimidin-2-ylamino)phenyl)propanoic acid], the “% Inhibition at 10 μM (ELISA)” value under setting [1] is recorded as 75%. Further, the inhibition at 10 µM under setting [4] was 61%. In the same order, the values of `Cl.O=C(O)CCc1ccc(Nc2ncc(Cl)c(NC[C@@H]3CCCO3)n2)cc1` [NT1-015, (S)-3-(4-(5-Chloro-4-((tetrahydrofuran-2-yl)methylamino)pyrimidin-2-ylamino)phenyl)propanoic acid] are 72% and 70%. The corresponding values for `Cl.O=C(O)CCc1ccc(Nc2ncc(Br)c(NCC3CCCO3)n2)cc1` (stereo not shown) [NT1-023, 3-(4-(5-Bromo-4-((tetrahydrofuran-2-yl)methylamino)pyrimidin-2-ylamino)phenyl)propanoic acid] are 75% and 74%. In the case of `CN(C)CCNC(=O)CCc1ccc(Nc2ncc(Cl)c(NCC3CCCO3)n2)cc1.Cl` (stereo not shown) [NT1-028, 3-(4-(5-Chloro-4-((tetrahydrofuran-2-yl)methylamino)pyrimidin-2-ylamino)phenyl)-N-(2-(dimethylamino)ethyl)propanamide], under setting [1], the “% Inhibition at 10 μM (ELISA)” value was 74%. Moreover, the inhibition at 10 µM under setting [4] was 62%. For `CCNC(=O)C1CCN(c2ccc(Nc3ncc(Cl)c(NC[C@@H]4CCCO4)n3)cc2)CC1` [SG1-083], the “% Inhibition at 10 μM (ELISA)” value under setting [1] is reported as 61%. Moreover, the inhibition at 10 µM under setting [4] stood at 73%. In the same order, the values of `COc1ccc(Nc2ncc(Br)c(NCC3CCCO3)n2)cc1.Cl` (stereo not shown) [SK1-022, 5-Bromo-N2-(4-methoxyphenyl)-N4-((tetrahydrofuran-2-yl)methyl)pyrimidine-2,4-diamine] are 67% and 68%. Consider `COc1ccc(Nc2ncc(C(=O)Nc3c(F)cccc3Cl)c(NCC3CCCO3)n2)cc1` (stereo not shown) [YL7-104-1, N-(2-chloro-6-fluorophenyl)-2-(4-methoxyphenylamino)-4-((tetrahydrofuran-2-yl)methylamino)pyrimidine-5-carboxamide], for which the “% Inhibition at 10 μM (ELISA)” value under setting [1] is 76% and 61% and 37% and 27%. Regarding `Cl.Oc1ccc(Nc2ncc(F)c(NCC3CCCO3)n2)cc1F` (stereo not shown) [YL7-164, 2-Fluoro-4-(5-fluoro-4-((tetrahydrofuran-2-yl)methylamino)pyrimidin-2-ylamino)phenol hydrochloride], under setting [5], the “% Inhibition at 10 μM (ELISA)” value is 46% and 55%. The inhibition at 10 µM under setting [4] worked out at 37%.

Turning to `Cc1cnc(Nc2ccc(O)c(F)c2)nc1NCC1CCCO1.Cl` (stereo not shown) [YL7-170-1, 2-Fluoro-4-(5-methyl-4-((tetrahydrofuran-2-yl)methylamino)pyrimidin-2-ylamino)phenol hydrochloride], the “% Inhibition at 10 μM (ELISA)” value under setting [5] is 51% and 29% and 47%.

As to `Cl.O=C(Nc1c(F)cccc1Cl)c1cnc(Nc2ccc(O)c(F)c2)nc1NCC1CCCO1` (stereo not shown) [YL7-170-2, N-(2-chloro-6-fluorophenyl)-2-(3-fluoro-4-hydroxyphenylamino)-4-((tetrahydrofuran-2-yl)methylamino)pyrimidine-5-carboxamide hydrochloride], the “% Inhibition at 10 μM (ELISA)” value under setting [5] is 68% and 67%. Besides, under setting [4], the inhibition at 10 µM is 65%.
